How the values were obtained:
B16-F10 [1] = experiment: Induction of cell cycle arrest in mouse B16-F10 cells assessed as accumulation at G1 phase at 10 nM incubated for 24 hrs by PI staining based flow cytometry (reference value: 52.77 %); type: functional
B16-F10 [2] = experiment: Immunomodulatory activity in mouse B16-F10 cells allografted in C57 mouse assessed as increase in CD3-positive CD4-positive cells at 10 mg/kg, ip administered consecutively for 14 days in presence of NP-19 (reference value: 8.35 %); type: functional; conditions: time 14 day
B16-F10 [3] = experiment: Immunomodulatory activity in mouse B16-F10 cells allografted in C57 mouse assessed as decrease in PD-L1 level at 10 mg/kg, ip administered consecutively for 14 days relative to control; type: functional; parameters: scale not given: the % may be the effect or the level left; conditions: time 14 day
B16-F10 [4] = experiment: Inhibition of cell migration in mouse B16-F10 cells assessed as wound area ratio at 25 nM incubated for 24 hrs by wound healing assay relative to control; type: functional
B16-F10 [5] = experiment: Inhibition of colony formation in mouse B16-F10 cells at 50 uM incubated for 24 hrs and subsequent replacement of medium without compound measured after 10 to 14 days by crystal violet staining based assay relative to control; type: functional
B16-F10 [6] = experiment: Antiproliferative activity against mouse B16-F10 cells incubated for 48 hrs by MTT assay; type: functional, cell-based; conditions: B16-F10, 48 h
Tubulin = Tubulin (Sus scrofa, UniProt P02554+P02550); experiment: Inhibition of tubulin polymerization of pig brain microtubules by spectroscopic analysis; type: tissue-based
B16-F10 [7] = experiment: Induction of apoptosis in mouse B16-F10 cells assessed as viable cells at 25 nM incubated for 48 hrs by annexinV-FITC/PI staining based flow cytometry (reference value: 93.6 %); type: functional; conditions: read-out: Activity
B16-F10 [8] = experiment: Inhibition of tubulin polymerization in mouse B16-F10 cells assessed as disruption of microtubule network incubated for 6 hrs by fluorescence microscopy; type: cell-based; conditions: dose 10-50 nM
HCT-116 = experiment: Antiproliferative activity against human HCT-116 cells incubated for 48 hrs by MTT assay; type: functional, cell-based; conditions: HCT-116, 48 h
HepG2 = experiment: Antiproliferative activity against human HepG2 cells incubated for 48 hrs by MTT assay; type: functional, cell-based; conditions: HepG2, 48 h
B16-F10 [9] = experiment: Induction of cell cycle arrest in mouse B16-F10 cells assessed as accumulation at S phase at 50 nM incubated for 24 hrs by PI staining based flow cytometry (reference value: 21.79 %); type: functional
B16-F10 [10] = experiment: Induction of apoptosis in mouse B16-F10 cells assessed as necrotic cells at 50 nM incubated for 48 hrs by annexinV-FITC/PI staining based flow cytometry (reference value: 0.064 %); type: functional
B16-F10 [11] = experiment: Immunomodulatory activity in mouse B16-F10 cells allografted in C57 mouse assessed as increase in CD3-positive CD8-positive cells at 10 mg/kg, ip administered consecutively for 14 days in presence of NP-19 (reference value: 6.66 %); type: functional; conditions: time 14 day
B16-F10 [12] = experiment: Induction of apoptosis in mouse B16-F10 cells assessed as early apoptotic cells at 50 nM incubated for 48 hrs by annexinV-FITC/PI staining based flow cytometry (reference value: 4.25 %); type: functional
B16-F10 [13] = experiment: Immunomodulatory activity in mouse B16-F10 cells allografted in C57 mouse assessed as increase in CD3-positive CD8-positive cells at 10 mg/kg, ip administered consecutively for 14 days (reference value: 6.66 %); type: functional; conditions: time 14 day
HeLa = experiment: cells; conditions: Homo sapiens, 48 h
Description: Antiproliferative activity against human HeLa cells incubated for 48 hrs by MTT assay

B16-F10 [14] = experiment: Antitumor activity against mouse B16-F10 cells allografted in C57 mouse assessed as tumor growth inhibition at 10 mg/kg, ip administered consecutively for 14 days; type: functional; conditions: B16-F10, 336 h, time 14 day, read-out: TGI
B16-F10 [15] = experiment: Inhibition of cell migration in mouse B16-F10 cells assessed as wound area ratio at 10 nM incubated for 24 hrs by wound healing assay relative to control; type: functional
[16] = Toxicity in C57 mouse allografted with mouse B16-F10 cells assessed as body weight loss at 10 mg/kg, ip administered consecutively for 14 days; type: organism-based; conditions: in vivo, 336 h, time 14 day
B16-F10 [17] = experiment: Immunomodulatory activity in mouse B16-F10 cells allografted in C57 mouse assessed as increase in CD3-positive CD4-positive cells at 10 mg/kg, ip administered consecutively for 14 days (reference value: 8.35 %); type: functional; conditions: time 14 day
B16-F10 [18] = experiment: Induction of apoptosis in mouse B16-F10 cells assessed as late apoptotic cells at 50 nM incubated for 48 hrs by annexinV-FITC/PI staining based flow cytometry (reference value: 2.06 %); type: functional
B16-F10 [19] = experiment: Induction of cell cycle arrest in mouse B16-F10 cells assessed as accumulation at G2 phase at 50 nM incubated for 24 hrs by PI staining based flow cytometry (reference value: 23.04 %); type: functional
B16-F10 [20] = experiment: Induction of apoptosis in mouse B16-F10 cells assessed as early apoptotic cells at 10 nM incubated for 48 hrs by annexinV-FITC/PI staining based flow cytometry (reference value: 4.25 %); type: functional
B16-F10 [21] = experiment: Induction of apoptosis in mouse B16-F10 cells assessed as early apoptotic cells at 25 nM incubated for 48 hrs by annexinV-FITC/PI staining based flow cytometry (reference value: 4.25 %); type: functional
[22] = Toxicity in C57 mouse allografted with mouse B16-F10 cells assessed as body weight loss at 10 mg/kg, ip administered consecutively for 14 days in presence of NP-19; type: organism-based; conditions: in vivo, 336 h, time 14 day
[23] = Toxicity in C57 mouse allografted with mouse B16-F10 cells assessed as pathological damage in heart at 10 mg/kg, ip administered consecutively for 14 days by H and E staining based analysis; type: organism-based; conditions: in vivo, 336 h, time 14 day
[24] = Toxicity in C57 mouse allografted with mouse B16-F10 cells assessed as pathological damage in kidney at 10 mg/kg, ip administered consecutively for 14 days by H and E staining based analysis; type: organism-based; conditions: in vivo, 336 h, time 14 day
B16-F10 [25] = experiment: Induction of apoptosis in mouse B16-F10 cells assessed as late apoptotic cells at 10 nM incubated for 48 hrs by annexinV-FITC/PI staining based flow cytometry (reference value: 2.06 %); type: functional
B16-F10 [26] = experiment: Induction of cell cycle arrest in mouse B16-F10 cells assessed as accumulation at G2 phase at 25 nM incubated for 24 hrs by PI staining based flow cytometry (reference value: 23.04 %); type: functional
[27] = Toxicity in C57 mouse allografted with mouse B16-F10 cells assessed as pathological damage in liver at 10 mg/kg, ip administered consecutively for 14 days by H and E staining based analysis; type: organism-based; conditions: in vivo, 336 h, time 14 day
B16-F10 [28] = experiment: Induction of apoptosis in mouse B16-F10 cells assessed as viable cells at 10 nM incubated for 48 hrs by annexinV-FITC/PI staining based flow cytometry (reference value: 93.6 %); type: functional; conditions: read-out: Activity
B16-F10 [29] = experiment: Inhibition of tubulin polymerization in mouse B16-F10 cells assessed as loss of cellular structure incubated for 6 hrs by fluorescence microscopy; type: cell-based; conditions: dose 10-50 nM
B16-F10 [30] = experiment: Inhibition of cell migration in mouse B16-F10 cells assessed as wound area ratio at 50 nM incubated for 24 hrs by wound healing assay relative to control; type: functional
B16-F10 [31] = experiment: Induction of cell cycle arrest in mouse B16-F10 cells assessed as accumulation at G1 phase at 50 nM incubated for 24 hrs by PI staining based flow cytometry (reference value: 52.77 %); type: functional

COc1ccc2c(c1F)Cc1ccccc1N2C(=O)c1cc(OC)c(OC)c(OC)c1
Activity (B16-F10 [1]): 50.88% | Activity (B16-F10 [2]): 26.3% | Activity (B16-F10 [3]): ~10% | Ratio (B16-F10 [4]): 26.05% | inhibition at 50 µM (B16-F10 [5]): ~100% | IC50 (B16-F10 [6]): 20 nM | IC50 (Tubulin): 1500 nM | viability at 0.025 µM (B16-F10 [7]): 70.4% | inhibition (B16-F10 [8]): Dose-Dependent Effect | IC50 (HCT-116): 23 nM | IC50 (HepG2): 41 nM | Activity (B16-F10 [9]): 24.31% | Activity (B16-F10 [10]): 0.61% | Activity (B16-F10 [11]): 19.5% | Activity (B16-F10 [12]): 36.8% | Activity (B16-F10 [13]): 8.17% | IC50 (HeLa): 37 nM | inhibition in vivo at 10 mg/kg (B16-F10 [14]): 65.1% | Ratio (B16-F10 [15]): 31.52% | Activity [16]: Non-Toxic | Activity (B16-F10 [17]): 10.1% | Activity (B16-F10 [18]): 13.4% | Activity (B16-F10 [19]): 71.11% | Activity (B16-F10 [20]): 5.7% | Activity (B16-F10 [21]): 22.7% | Activity [22]: Non-Toxic | Activity [23]: Non-Toxic | Activity [24]: Non-Toxic | Activity (B16-F10 [25]): 3.17% | Activity (B16-F10 [26]): 43.79% | Activity [27]: Non-Toxic | viability at 0.01 µM (B16-F10 [28]): 91% | inhibition (B16-F10 [29]): Dose-Dependent Effect | Ratio (B16-F10 [30]): 7.2% | Activity (B16-F10 [31]): 3.24%
